# From patent publication US20250388604A1, “Compounds and Their Use as PDE4 Activators” (Mironid Limited, priority 2022, published 2025)
# System: m-IMCD3 cells
# Assay: Inhibition of PGE2-stimulated in vitro cyst formation in m-IMCD3 cells
# Assay type: cell-based, mouse
# Conditions: Mus musculus, mIMCD3, 144 h, 3 μM; mean cyst area, 100% for (DMSO + PGE2) and 0% for DMSO control; 6 days of culture; read-out: % Cyst area after incubation with 3 μM test compound
# Method: HEK 293 and MDCK cells (Public Health England, Cell Culture Collections) were maintained in Dulbecco's Modified Eagle's Medium (DMEM) supplemented with 10% (v/v) fetal bovine serum (FBS) (Seralab), 2 mM L-glutamine and 100 U/mL penicillin streptomycin cocktail (ThermoFisher); termed complete media. Clonal HEK 293 cell lines were maintained in complete media supplemented with 0.6 mg/ml G418 (Enzo Life Sciences). Mouse inner medullary collecting duct (m-IMCD3) cells [American Type Culture Collection (ATCC)] were maintained in media consisting of DMEM/Hams F-12 50/50 Mix (DMEM F12; Corning) supplemented with penicillin streptomycin cocktail (100 U/mL) and FBS (10% v/v) (DMEM F12-10% FBS).
# The mouse Inner Medullary Collecting Duct cell line (m-IMCD3) spontaneously forms cystic spheroids in 3D culture with a Type 1 collagen/Matrigel extracellular matrix. This process can be stimulated with agents which raise intracellular cAMP and is used as an in vitro model for the formation of cystic structures in the kidneys of patients with ADPKD.
# Rat Collagen I (Fisher Scientific) is prepared on ice by neutralising with 1M NaOH and diluting with a 2× volume of DMEM/F12+10% FBS. This is mixed 1:1.1 with ice cold Matrigel (Corning) for coating plates (coating mix), and 1:0.93 with Matrigel for cell plating (plating mix).
# The assay is conducted in the wells of a 96-well plate culture dish using a total volume of 130 μL of collagen/Matrigel/DMEM F12-10% FBS suspension in growth media for each matrix plug per individual well. Initially, 30 μL of collagen/Matrigel/DMEM F12-10% FBS (coating mix) is added into the well of a 96 well plate and the collagen is set to a gel by incubating at 37° C. for at least 15 minutes. A second layer of 100 μL collagen/Matrigel suspension (plating mix) containing m-IMCD3 cells (2.75×10^6 m-IMCD3 cells per 96-well plate) is layered over the coating mix and the collagen/Matrigel/cell mix again set to a gel by incubating at 37° C. Cell cultures are maintained at 37° C. in an atmosphere of 5% CO2, 95% air.
# Between 18 and 24 h after plating, test compound(s) as DMSO stock solutions [0.1% (v/v) final DMSO concentration] and PGE2 (100 nM final concentration) in DMEM F12-10% FBS are added in quadruplicate wells per condition. Media, together with the test compound and PGE2 are replenished after 2 or 3 days. After 6 days of culture z stack images of the wells are captured using the Nikon Eclipse Ti2-E microscope. Nikon General Analysis software is used to measure the following parameters in each well: the mean cyst area, the number of cysts, and the total cyst area.
# PDE4 long form activators inhibited in vitro cyst formation in m-IMCD3 cells. Data are shown in Table 4 as mean cyst area (%), compared to 100% for (DMSO+PGE2) and 0% for DMSO control.
row,Compound,activity at 3 µM
1,"Cc1cc(F)ccc1C(=O)N1CCc2nc(N3C4CCC3CNC4)sc2C1 [Example 216, (2-(3,8-diazabicyclo[3.2.1]octan-8-yl)-6,7-dihydrothiazolo[5,4-c]pyridin-5(4H)-yl)(4-fluoro-2-methylphenyl)methanone]",-3%
2,"COc1nc(F)ccc1C(=O)N1CCc2nc(N3C4CCC3CNC4)sc2C1 [Example 240, (2-(3,8-diazabicyclo[3.2.1]octan-8-yl)-6,7-dihydrothiazolo[5,4-c]pyridin-5(4H)-yl)(6-fluoro-2-methoxypyridin-3-yl)methanone]",-3%
3,"Cc1ccc(-c2nc3c(s2)CN(C(=O)CC2CCCC2)CC3)cn1 [Example 305, 2-cyclopentyl-1-(2-(6-methylpyridin-3-yl)-6,7-dihydrothiazolo[5,4-c]pyridin-5(4H)-yl)ethan-1-one]",26%
4,"O=C(CC1CCCC1)N1CCc2nc(N3CCNC[C@@H]3CO)sc2C1 [Example 275, (R)-2-cyclopentyl-1-(2-(2-(hydroxymethyl)piperazin-1-yl)-6,7-dihydrothiazolo[5,4-c]pyridin-5(4H)-yl)ethan-1-one]",19%
5,"CC(C)(C)[C@@H](O)C(=O)N1CCc2nc(N3C4CCC3CNC4)sc2C1 [Example 176, (2R)-1-(2-(3,8-diazabicyclo[3.2.1]octan-8-yl)-6,7-dihydrothiazolo[5,4-c]pyridin-5(4H)-yl)-2-hydroxy-3,3-dimethylbutan-1-one]",12%
6,"Cn1c(C(=O)N2CCc3nc(N4C5CCC4CNC5)sc3C2)cc2ccccc21 [Example 189, (2-(3,8-diazabicyclo[3.2.1]octan-8-yl)-6,7-dihydrothiazolo[5,4-c]pyridin-5(4H)-yl)(1-methyl-1H-indol-2-yl)methanone]",-1%
7,"Cc1ccc(C(=O)N2CCc3nc(N4C5CCC4CNC5)sc3C2)cc1 [Example 196, (2-(3,8-diazabicyclo[3.2.1]octan-8-yl)-6,7-dihydrothiazolo[5,4-c]pyridin-5(4H)-yl)(p-tolyl)methanone]",-1%
8,"O=C(C1Cc2ccccc2O1)N1CCc2nc(N3C4CCC3CNC4)sc2C1 (stereo not drawn) [Example 179, (2-(3,8-diazabicyclo[3.2.1]octan-8-yl)-6,7-dihydrothiazolo[5,4-c]pyridin-5(4H)-yl)(2,3-dihydrobenzofuran-2-yl)methanone]",2%
9,"O=C(C1CC12CCCC2)N1CCc2nc(N3C4CCC3CNC4)sc2C1 (stereo not drawn) [Example 162, (2-(3,8-diazabicyclo[3.2.1]octan-8-yl)-6,7-dihydrothiazolo[5,4-c]pyridin-5(4H)-yl)(spiro[2.4]heptan-1-yl)methanone]",14%
10,"Cc1cncc(-c2nc3c(s2)CN(C(=O)CC2CCCC2)CC3)c1 [Example 306, 2-cyclopentyl-1-(2-(5-methylpyridin-3-yl)-6,7-dihydrothiazolo[5,4-c]pyridin-5(4H)-yl)ethan-1-one]",-3%
11,"COC(C(=O)N1CCc2nc(N3C4CCC3CNC4)sc2C1)C1CCCC1 (stereo not drawn) [Example 157, 1-(2-(3,8-diazabicyclo[3.2.1]octan-8-yl)-6,7-dihydrothiazolo[5,4-c]pyridin-5(4H)-yl)-2-cyclopentyl-2-methoxyethan-1-one]",17%
12,"O=C(COc1ccccc1OCCO)N1CCc2nc(N3C4CCC3CNC4)sc2C1 [Example 250, 1-(2-(3,8-diazabicyclo[3.2.1]octan-8-yl)-6,7-dihydrothiazolo[5,4-c]pyridin-5(4H)-yl)-2-(2-(2-hydroxyethoxy)phenoxy)ethan-1-one]",17%

# Same assay, conditions: Mus musculus, mIMCD3, 144 h, 10 μM; mean cyst area, 100% for (DMSO + PGE2) and 0% for DMSO control; 6 days of culture; read-out: % Cyst area after incubation with 10 μM test compound
row,Compound,activity at 10 µM
1,"O=C(COC1CCCC1)N1CCc2nc(N3C4CCC3CNC4)sc2C1 [Example 149, 1-(2-(3,8-diazabicyclo[3.2.1]octan-8-yl)-6,7-dihydrothiazolo[5,4-c]pyridin-5(4H)-yl)-2-(cyclopentyloxy)ethan-1-one]",-2%
2,"CN1CC2CCC(C1)N2c1nc2c(s1)CN(C(=O)NC1CCC(F)(F)CC1)CC2 [Example 77, N-(4,4-difluorocyclohexyl)-2-(3-methyl-3,8-diazabicyclo[3.2.1]octan-8-yl)-6,7-dihydrothiazolo[5,4-c]pyridine-5(4H)-carboxamide]",1%
3,"CC1(C)CCCN1C(=O)N1CCc2nc(N3C4CCC3CNC4)sc2C1 [Example 120, (2-(3,8-diazabicyclo[3.2.1]octan-8-yl)-6,7-dihydrothiazolo[5,4-c]pyridin-5(4H)-yl)(2,2-dimethylpyrrolidin-1-yl)methanone]",2%
4,"O=C(CCc1ccc(F)nc1)N1CCc2nc(N3C4CCC3CNC4)sc2C1 [Example 142, 1-(2-(3,8-diazabicyclo[3.2.1]octan-8-yl)-6,7-dihydrothiazolo[5,4-c]pyridin-5(4H)-yl)-3-(6-fluoropyridin-3-yl)propan-1-one]",-4%
5,"O=C(Nc1ccccc1)N1CCc2nc(N3C4CCC3CNC4)sc2C1 [Example 57, 2-(3,8-diazabicyclo[3.2.1]octan-8-yl)-N-phenyl-6,7-dihydrothiazolo[5,4-c]pyridine-5(4H)-carboxamide]",-3%
6,"CC1(C(=O)N2CCc3nc(N4C5CCC4CNC5)sc3C2)CCCC1 [Example 150, (2-(3,8-diazabicyclo[3.2.1]octan-8-yl)-6,7-dihydrothiazolo[5,4-c]pyridin-5(4H)-yl)(1-methylcyclopentyl)methanone]",1%
7,"O=C(CC1CCCC1)N1CCc2nc(N3CCNCC3)sc2C1 [Example 109, 2-cyclopentyl-1-(2-(piperazin-1-yl)-6,7-dihydrothiazolo[5,4-c]pyridin-5(4H)-yl)ethan-1-one]",6%
8,"O=C(Cc1ccc(F)cc1F)N1CCc2nc(N3C4CCC3CNC4)sc2C1 [Example 144, 1-(2-(3,8-diazabicyclo[3.2.1]octan-8-yl)-6,7-dihydrothiazolo[5,4-c]pyridin-5(4H)-yl)-2-(2,4-difluorophenyl)ethan-1-one]",13%
9,"CN1CC2CCC(C1)N2c1nc2c(s1)CN(C(=O)CC1CCCC1)C2 [Example 83, 2-cyclopentyl-1-(2-(3-methyl-3,8-diazabicyclo[3.2.1]octan-8-yl)-4,6-dihydro-5H-pyrrolo[3,4-d]thiazol-5-yl)ethan-1-one]",4%
10,"CN1CC2CCC(C1)N2c1cc2n(n1)CCN(C(=O)CC1CCC(F)(F)CC1)C2 [Example 86, 2-(4,4-difluorocyclohexyl)-1-(2-(3-methyl-3,8-diazabicyclo[3.2.1]octan-8-yl)-6,7-dihydropyrazolo[1,5-a]pyrazin-5(4H)-yl)ethan-1-one]",-1%
11,"COc1ccccc1CC(=O)N1CCc2nc(N3C4CCC3CNC4)sc2C1 [Example 139, 1-(2-(3,8-diazabicyclo[3.2.1]octan-8-yl)-6,7-dihydrothiazolo[5,4-c]pyridin-5(4H)-yl)-2-(2-methoxyphenyl)ethan-1-one]",-1%
12,"COc1ccccc1OCC(=O)N1CCc2nc(N3C4CCC3CNC4)sc2C1 [Example 138, 1-(2-(3,8-diazabicyclo[3.2.1]octan-8-yl)-6,7-dihydrothiazolo[5,4-c]pyridin-5(4H)-yl)-2-(2-methoxyphenoxy)ethan-1-one]",0%
13,"Cc1cc(F)ccc1CC(=O)N1CCc2nc(N3C4CCC3CNC4)sc2C1 [Example 156, 1-(2-(3,8-diazabicyclo[3.2.1]octan-8-yl)-6,7-dihydrothiazolo[5,4-c]pyridin-5(4H)-yl)-2-(4-fluoro-2-methylphenyl)ethan-1-one]",0%
14,"Cc1cc(F)ccc1OCC(=O)N1CCc2nc(N3C4CCC3CNC4)sc2C1 [Example 145, 1-(2-(3,8-diazabicyclo[3.2.1]octan-8-yl)-6,7-dihydrothiazolo[5,4-c]pyridin-5(4H)-yl)-2-(4-fluoro-2-methylphenoxy)ethan-1-one]",17%
15,"O=C(COc1ccnc(F)c1)N1CCc2nc(N3C4CCC3CNC4)sc2C1 [Example 73, 1-(2-(3,8-diazabicyclo[3.2.1]octan-8-yl)-6,7-dihydrothiazolo[5,4-c]pyridin-5(4H)-yl)-2-((2-fluoropyridin-4-yl)oxy)ethan-1-one]",3%
